Results as given in PubChem BioAssay AID720495 (Broad Institute, 2013).
Records with an inconclusive call do not appear. Active and inactive are the calls of the source. The rule behind the calls is not given here.

The compounds below were run against Protein AF-9 (Homo sapiens) (UniProt P42568) (assay: inhibitors of AF4-AF9 protein interaction, dose response, biochemical, cherry-picked samples, plate reader (AID 720495)). Conditions: biochemical protein-protein interaction assay.
Chain of Protein AF-9 (Homo sapiens) (P42568 whole entry, looked up): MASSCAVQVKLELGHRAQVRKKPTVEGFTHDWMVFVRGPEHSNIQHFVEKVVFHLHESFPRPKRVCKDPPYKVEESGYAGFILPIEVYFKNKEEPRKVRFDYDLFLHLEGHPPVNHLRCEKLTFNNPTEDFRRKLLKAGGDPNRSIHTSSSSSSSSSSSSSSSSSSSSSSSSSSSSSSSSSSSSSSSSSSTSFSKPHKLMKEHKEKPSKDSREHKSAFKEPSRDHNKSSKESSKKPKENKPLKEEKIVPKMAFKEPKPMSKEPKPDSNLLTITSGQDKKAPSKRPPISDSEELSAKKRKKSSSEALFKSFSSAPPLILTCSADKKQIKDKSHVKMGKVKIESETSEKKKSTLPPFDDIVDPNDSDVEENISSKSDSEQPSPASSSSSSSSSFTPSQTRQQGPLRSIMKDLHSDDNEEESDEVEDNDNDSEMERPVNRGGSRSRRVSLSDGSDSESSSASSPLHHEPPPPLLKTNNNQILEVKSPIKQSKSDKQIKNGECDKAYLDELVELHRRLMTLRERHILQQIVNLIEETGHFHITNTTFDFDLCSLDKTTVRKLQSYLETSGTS

How did the AC50 turn out when Cc1ncc(CO)c(/C=N/NC(=S)Nc2ccc(Cl)c(Cl)c2)c1O was run?
Its AC50 is 5.79 µM.

For Oc1ccc(O)c(C=NNC(=S)NC2CC3CC2C2C=CCC32)c1 (stereo not drawn), which AC50 is on record?
The AC50 was 8.16 µM.

With CCN(CC)CCOc1ccc2c(c1)C(=NNC(=O)c1ccccn1)c1cc(OCCN(CC)CC)ccc1-2 as the compound, how does the AC50 read?
The AC50 was 3.66 µM.

Which AC50 does the source give for COc1ccc(NC2=C(NCCO)C(=O)c3ccccc3C2=O)cc1 here?
The AC50 was 4.37 µM.

For O=C1c2ccccc2-c2onc3ccc(N4CCCC4)c1c23, which AC50 is on record?
Its AC50 is 5.49 µM.

With COc1ccc2c(c1)c(=Cc1ccc(N(C)C)cc1)c1cc(-c3ccccc3)[n+](C)n12 as the compound, how does the AC50 read?
Its AC50 is 2.49 µM.

O=C1C(NS(=O)(=O)c2ccc(Cl)cc2)=C(N2CCCCC2)C(=O)c2ccccc21 was tested. Which AC50 did it give?
The AC50 was less than 0.08 µM.

Which AC50 does the source give for Oc1cc(NCCN2CCOCC2)cc2cccnc12 here?
The AC50 was 7.86 µM.

With CC(=O)OCCNc1cc(N2CCN(C)CC2)c2noc3c2c1C(=O)c1ccccc1-3 as the compound, how does the AC50 read?
The AC50 was 1.94 µM.

For COc1cc2c(c(OC)c1OC)-c1ccc(O)c(=O)cc1[C@@H](N)CC2, which AC50 is on record?
Its AC50 is 2.3 µM.

How did the AC50 turn out when CN(C)c1ccc(/C=C/c2cc[n+](C)c3ccccc23)cc1 was run?
The AC50 was 1.05 µM.

Which AC50 does the source give for CCOc1ccc(NCc2cccn2-c2nnc(N3CCC(C(=O)NCCCN4CCCCC4C)CC3)s2)cc1 (stereo not drawn) here?
The AC50 was 4.96 µM.

With COc1cccc2sc(N(CCCN(C)C)C(=O)c3ccc(S(=O)(=O)N4CCCc5ccccc54)cc3)nc12 as the compound, how does the AC50 read?
The AC50 was 4.68 µM.

Which AC50 does the source give for O=C(COc1cc(F)ccc1[N+](=O)[O-])Nc1ccc(N2CCCCC2)cc1 here?
Its AC50 is 9.04 µM.

O=C(Nc1ccc(N2CCCCCC2)cc1)c1ccc[nH]1 was tested. Which AC50 did it give?
The AC50 was 5.21 µM.

For CN(C)c1ccc(C=c2c3ccccc3n3c2cc(-c2ccccc2)[n+]3C)cc1, which AC50 is on record?
The AC50 was 2.43 µM.

C#CCOCCOCCOCCNc1nc(N2CCN(C(=O)[C@H](CCCCN)n3cc(CN)nn3)CC2)nc(N2CCN(C(=O)[C@H](CCCN=C(N)N)n3cc(C(N)[C@H](C)CC)nn3)CC2)n1 (stereo partly drawn) was tested. Which AC50 did it give?
Its AC50 is 2.81 µM.

For CN(C)CC/C=C1/c2ccc(F)cc2Sc2ccc(Cl)cc21, which AC50 is on record?
The AC50 was 5.01 µM.

Which AC50 does the source give for CC(C)Nc1ccc(Nc2ccccc2)cc1 here?
Its AC50 is 10.9 µM.

Which AC50 does the source give for CN[C@H]1C[C@H]2c3[nH]c4ccc(-c5cccc(C)c5)cc4c3CCN2C[C@H]1[C@H](C)O here?
The AC50 was 6.97 µM.

Which AC50 does the source give for CC(C)(C)OC(=O)N1CCCN(C(c2ccnc3ccccc23)c2nnnn2-c2ccc3c(c2)OCCO3)CC1 (stereo not drawn) here?
Its AC50 is 0.312 µM.

For COc1cc(OC)c2c(c1C(CCN1CCOCC1)c1ccc(N(C)C)cc1)OC(=O)CC2c1ccc(N(C)C)cc1 (stereo not drawn), which AC50 is on record?
Its AC50 is 10.7 µM.

With CN1CCN(C(c2ccc(C(F)(F)F)cc2)c2cc(Cl)c3cccnc3c2O)CC1 (stereo not drawn) as the compound, how does the AC50 read?
Its AC50 is 1.54 µM.

CCN(CC)c1ccc(C(=C2C=CC(=[N+](CC)CC)C=C2)c2ccc(N(CC)CC)cc2)cc1 was tested. Which AC50 did it give?
Its AC50 is 0.153 µM.

CC[n+]1c(/C=C/c2ccc(N(C)C)cc2)ccc2ccccc21 was tested. Which AC50 did it give?
The AC50 was 8.28 µM.

How did the AC50 turn out when Cc1[nH]c2ccccc2c1N=Nc1ccccc1F was run?
The AC50 was 10.2 µM.

Which AC50 does the source give for CN(C)c1ccc(/C=C2/C[N+](C)(C)C/C(=C/c3ccc(N(C)C)cc3)C2=O)cc1 here?
The AC50 was 2.81 µM.

CC1(C)CNc2cc(N)ccc2S1 was tested. Which AC50 did it give?
The AC50 was 2.52 µM.

With COc1ccc(S(=O)(=O)/N=C2\C=C(Nc3ccc(O)cc3)C(=O)c3ccccc32)cc1 as the compound, how does the AC50 read?
Its AC50 is 0.724 µM.

How did the AC50 turn out when O=C(/C(=N/N=C/c1ccc(O)c(O)c1)c1ccccc1)c1ccccc1 was run?
Its AC50 is 1.62 µM.

For CN1CCN(C(c2ccc(Cl)cc2)c2cc(Cl)c3cccnc3c2O)CC1 (stereo not drawn), which AC50 is on record?
The AC50 was 0.984 µM.

For CCN1CCN(c2ccc(N)cc2C)CC1, which AC50 is on record?
The AC50 was 6.46 µM.

With COc1ccc(NCc2ccc(OC)c(Cn3ccnc3)c2)c(OC)c1 as the compound, how does the AC50 read?
Its AC50 is 11.2 µM.

With CN1CCN(C(c2ccc(Br)cc2)c2cc(Cl)c3cccnc3c2O)CC1 (stereo not drawn) as the compound, how does the AC50 read?
The AC50 was 1.47 µM.

CCN(CC)c1ccc(CNc2ccc3c(c2)ncn3C(C)(C)C)cc1 was tested. Which AC50 did it give?
The AC50 was 3.48 µM.

Same assay, conditions: biochemical protein-protein interaction assay, at 10 µM (top of the series)

With CC1=NN(c2ccccc2)C(=O)/C1=C/C=C/c1ccc(N(C)C)cc1 as the compound, how does the “activity change, negative = inhibition” value read?
Its value is “inactive”.

C(=C\c1ccncc1)/c1ccncc1 was tested. Which “activity change, negative = inhibition” value did it give?
The value was “inactive”.

For O=C(C[C@H]1CC[C@@H]2[C@H](COC[C@@H](O)CN2S(=O)(=O)c2ccc(F)cc2)O1)NCC1CCCCC1, which “activity change, negative = inhibition” value is on record?
Its value is “inactive”.

Which “activity change, negative = inhibition” value does the source give for CCOc1ccc(Nc2ccc([N+](=O)[O-])c3nonc23)cc1 here?
Its value is “inactive”.

With COc1ccc(-c2oc3ccccc3c(=O)c2OC(C)=O)cc1 as the compound, how does the “activity change, negative = inhibition” value read?
The value was “inactive”.

Which “activity change, negative = inhibition” value does the source give for O=C(O)CCNc1ccc(NCCC(=O)O)c2c1C(=O)c1ccccc1C2=O here?
Its value is “inactive”.

COc1cccc(OCC(O)CN2CCC(CN3C(=O)c4cccc5cccc(c45)C3=O)CC2)c1 (stereo not drawn) was tested. Which “activity change, negative = inhibition” value did it give?
Its value is “inactive”.

Which “activity change, negative = inhibition” value does the source give for Fc1ccc([C@@H]2CCNC[C@H]2COc2ccc3c(c2)OCO3)cc1 here?
Its value is “inactive”.

How did the “activity change, negative = inhibition” value turn out when O=C(NCCCN1CCCC1=O)C1CCN(S(=O)(=O)c2cccc(C(F)(F)F)c2)CC1 was run?
The value was “inactive”.

C[C@H](CO)N1C[C@H](C)[C@H](CN(C)Cc2ccc(C(F)(F)F)cc2)OCCCC[C@H](C)Oc2ccc(N(C)C)cc2C1=O was tested. Which “activity change, negative = inhibition” value did it give?
Its value is “inactive”.

With COc1cc(/C=N/N=C(N)N)ccc1OCc1ccc(Cl)cc1 as the compound, how does the “activity change, negative = inhibition” value read?
Its value is “inactive”.

How did the “activity change, negative = inhibition” value turn out when CSCCC(c1nnnn1C1CCCCC1)N1CCC(n2c(=O)[nH]c3ccccc32)CC1 (stereo not drawn) was run?
Its value is “inactive”.

Which “activity change, negative = inhibition” value does the source give for COc1ccc(NC2CCCN(Cc3cccc4cnccc34)C2)cc1OC (stereo not drawn) here?
The value was “inactive”.

With Cc1ccc(NC(=S)N/N=C/c2ccc([N+](=O)[O-])s2)cc1 as the compound, how does the “activity change, negative = inhibition” value read?
The value was “inactive”.

With O=C(NCCc1cccc(F)c1)C1CCCN(c2nc3ccccc3s2)C1 (stereo not drawn) as the compound, how does the “activity change, negative = inhibition” value read?
Its value is “inactive”.

With C#CCOCCOCCOCCNc1nc(N2CCN(C(=O)[C@H](CCCCN)n3cc([C@@H](N)[C@H](C)CC)nn3)CC2)nc(N2CCN(C(=O)[C@H](CCC(=O)O)n3cc([C@@H](N)CCCCN)nn3)CC2)n1 as the compound, how does the “activity change, negative = inhibition” value read?
Its value is “inactive”.

How did the “activity change, negative = inhibition” value turn out when CCCCCN=C(N)N/N=C/c1c[nH]c2ccc(OC)cc12 was run?
Its value is “inactive”.

Cn1ccc2c(N3CCCCCC3)cc3c(c21)C1CCC3C1 (stereo not drawn) was tested. Which “activity change, negative = inhibition” value did it give?
Its value is “inactive”.

Which “activity change, negative = inhibition” value does the source give for CN1CCN(c2ccc(S(=O)(=O)N3CCCCC3)cc2NC(=O)/C=C/c2ccc(Cl)c([N+](=O)[O-])c2)CC1 here?
Its value is “inactive”.

Which “activity change, negative = inhibition” value does the source give for CCN1C(=O)/C(=C\C(=O)c2cccs2)c2cc(Br)ccc21 here?
Its value is “inactive”.

Which “activity change, negative = inhibition” value does the source give for CNC(=S)N1N=C(c2ccc(Br)cc2)CC1c1ccc(N(C)C)cc1 (stereo not drawn) here?
The value was “inactive”.

How did the “activity change, negative = inhibition” value turn out when C[C@@H]1CN([C@H](C)CO)C(=O)c2c(c3ccccc3n2C)-c2ccccc2CO[C@@H]1CN(C)Cc1ccc2c(c1)OCCN2C was run?
The value was “inactive”.

For CC(=O)c1ccc(OCC(=O)Nc2ccc(N3CCCCC3)cc2)cc1, which “activity change, negative = inhibition” value is on record?
The value was “inactive”.

How did the “activity change, negative = inhibition” value turn out when Oc1ccccc1C=NCCCCCCN=Cc1ccccc1O was run?
The value was “inactive”.

With c1ccc2c(Nc3ccc4c(c3)OCCO4)c3c(nc2c1)CCCC3 as the compound, how does the “activity change, negative = inhibition” value read?
Its value is “inactive”.

How did the “activity change, negative = inhibition” value turn out when CN(C)CCNc1nc2sc3c(c2c(=O)n1CCc1ccccc1)CCCCC3 was run?
The value was “inactive”.

How did the “activity change, negative = inhibition” value turn out when COc1ccc2sc(N(CCCN(C)C)C(=O)c3ccc(S(=O)(=O)N(C)C4CCCCC4)cc3)nc2c1 was run?
Its value is “inactive”.

How did the “activity change, negative = inhibition” value turn out when COc1cc2c(cc1N)-c1ccc(N)cc1C2=O was run?
Its value is “inactive”.

Cc1c(C)n(Cc2ccccc2)c2ccc(C(=O)OCCN(C)C)cc12 was tested. Which “activity change, negative = inhibition” value did it give?
Its value is “inactive”.

Which “activity change, negative = inhibition” value does the source give for COc1ccc(/C=N/N2CCN(c3ccccc3OC)CC2)cc1Br here?
Its value is “inactive”.

COc1ccccc1N1CCN(/N=C\c2sccc2C)CC1 was tested. Which “activity change, negative = inhibition” value did it give?
Its value is “inactive”.

Which “activity change, negative = inhibition” value does the source give for COc1ccc(N2CCC(CNC(=S)Nc3ccc(C)cc3C)C2)cc1 (stereo not drawn) here?
The value was “inactive”.

For C[C@@H]1CN([C@@H](C)CO)C(=O)Cc2cc(N(C)C)ccc2O[C@H]1CN(C)Cc1ccc(Cl)c(Cl)c1, which “activity change, negative = inhibition” value is on record?
Its value is “inactive”.
